System: MPNST complex spheroid with HUVEC/MSC, growth, % test/control
Assay: Anticancer human tumor MPNST cell line growth inhibition [Asc];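 further: compounds left on spheroids for seven days before reading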
Conditions: for IC50: curve of first compound; for viability, T/C: stronger effect = lower value
Outline: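 Concentration series start at each agent's clinical Cmax, or at 10 microM when none is established, and drop in half-log steps; agents are applied alone or together to complex spheroids built with HUVEC and hMSC.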

## C#Cc1c(F)ccc2cc(O)cc(-c3ncc4c(N5CC6CCC(C5)N6)nc(OCC56CCCN5CC(F)C6)nc4c3F)c12 (stereo not given) + Cc1c(S(C)(=O)=O)c(-c2cc(F)cc(N3CCN(c4ccc(NS(=O)(=O)c5ccc(NC(CCN6CCC(C(=O)OCCCP(=O)(O)O)CC6)CSc6ccccc6)c(S(=O)(=O)C(F)(F)F)c5)cc4)CC3)c2)c(-c2ccc(Cl)cc2)n1C(C)C
Second compound 0.1 µM
  IC50: > 10 µM
Second compound 0.316 µM
  IC50: > 10 µM
Second compound 1 µM
  IC50: > 10 µM
Second compound 3.16 µM
  IC50: > 10 µM
Second compound 10 µM
  IC50: > 10 µM
Second compound 0.1 µM, first compound 0.0316 µM
  viability, T/C: 99.2%
Second compound 0.1 µM, first compound 0.1 µM
  viability, T/C: 104%
Second compound 0.1 µM, first compound 0.316 µM
  viability, T/C: 92.9%
Second compound 0.1 µM, first compound 1 µM
  viability, T/C: 103%
Second compound 0.1 µM, first compound 3.16 µM
  viability, T/C: 99.9%
Second compound 0.1 µM, first compound 10 µM
  viability, T/C: 101%
Second compound 0.316 µM, first compound 0.0316 µM
  viability, T/C: 93.4%
Second compound 0.316 µM, first compound 0.1 µM
  viability, T/C: 105%
Second compound 0.316 µM, first compound 0.316 µM
  viability, T/C: 110%
Second compound 0.316 µM, first compound 1 µM
  viability, T/C: 94.7%
Second compound 0.316 µM, first compound 3.16 µM
  viability, T/C: 91%
Second compound 0.316 µM, first compound 10 µM
  viability, T/C: 96.5%
Second compound 1 µM, first compound 0.0316 µM
  viability, T/C: 97%
Second compound 1 µM, first compound 0.1 µM
  viability, T/C: 99.2%
Second compound 1 µM, first compound 0.316 µM
  viability, T/C: 101%
Second compound 1 µM, first compound 1 µM
  viability, T/C: 95.4%
Second compound 1 µM, first compound 3.16 µM
  viability, T/C: 93.4%
Second compound 1 µM, first compound 10 µM
  viability, T/C: 77%
Second compound 3.16 µM, first compound 0.0316 µM
  viability, T/C: 80.5%
Second compound 3.16 µM, first compound 0.1 µM
  viability, T/C: 91.2%
Second compound 3.16 µM, first compound 0.316 µM
  viability, T/C: 117%
Second compound 3.16 µM, first compound 1 µM
  viability, T/C: 101%
Second compound 3.16 µM, first compound 3.16 µM
  viability, T/C: 78.2%
Second compound 3.16 µM, first compound 10 µM
  viability, T/C: 71.8%
Second compound 10 µM, first compound 0.0316 µM
  viability, T/C: 121%
Second compound 10 µM, first compound 0.1 µM
  viability, T/C: 135%
Second compound 10 µM, first compound 0.316 µM
  viability, T/C: 118%
Second compound 10 µM, first compound 1 µM
  viability, T/C: 158%
Second compound 10 µM, first compound 3.16 µM
  viability, T/C: 108%
Second compound 10 µM, first compound 10 µM
  viability, T/C: 124%

## Cc1nc(N2CCC3(CC2)COC(C)C3N)c(CO)nc1Sc1ccnc(N)c1Cl (stereo not given) + Cc1c(S(C)(=O)=O)c(-c2cc(F)cc(N3CCN(c4ccc(NS(=O)(=O)c5ccc(NC(CCN6CCC(C(=O)OCCCP(=O)(O)O)CC6)CSc6ccccc6)c(S(=O)(=O)C(F)(F)F)c5)cc4)CC3)c2)c(-c2ccc(Cl)cc2)n1C(C)C
Second compound 0.1 µM
  IC50: > 3 µM
Second compound 0.316 µM
  IC50: > 3 µM
Second compound 1 µM
  IC50: > 3 µM
Second compound 3.16 µM
  IC50: > 3 µM
Second compound 10 µM
  IC50: > 3 µM
Second compound 0.1 µM, first compound 0.00949 µM
  viability, T/C: 117%
Second compound 0.1 µM, first compound 0.03 µM
  viability, T/C: 152%
Second compound 0.1 µM, first compound 0.0949 µM
  viability, T/C: 143%
Second compound 0.1 µM, first compound 0.3 µM
  viability, T/C: 121%
Second compound 0.1 µM, first compound 0.949 µM
  viability, T/C: 104%
Second compound 0.1 µM, first compound 3 µM
  viability, T/C: 112%
Second compound 0.316 µM, first compound 0.00949 µM
  viability, T/C: 130%
Second compound 0.316 µM, first compound 0.03 µM
  viability, T/C: 136%
Second compound 0.316 µM, first compound 0.0949 µM
  viability, T/C: 157%
Second compound 0.316 µM, first compound 0.3 µM
  viability, T/C: 125%
Second compound 0.316 µM, first compound 0.949 µM
  viability, T/C: 117%
Second compound 0.316 µM, first compound 3 µM
  viability, T/C: 79.5%
Second compound 1 µM, first compound 0.00949 µM
  viability, T/C: 121%
Second compound 1 µM, first compound 0.03 µM
  viability, T/C: 148%
Second compound 1 µM, first compound 0.0949 µM
  viability, T/C: 126%
Second compound 1 µM, first compound 0.3 µM
  viability, T/C: 135%
Second compound 1 µM, first compound 0.949 µM
  viability, T/C: 96.2%
Second compound 1 µM, first compound 3 µM
  viability, T/C: 93.6%
Second compound 3.16 µM, first compound 0.00949 µM
  viability, T/C: 136%
Second compound 3.16 µM, first compound 0.03 µM
  viability, T/C: 141%
Second compound 3.16 µM, first compound 0.0949 µM
  viability, T/C: 164%
Second compound 3.16 µM, first compound 0.3 µM
  viability, T/C: 108%
Second compound 3.16 µM, first compound 0.949 µM
  viability, T/C: 117%
Second compound 3.16 µM, first compound 3 µM
  viability, T/C: 88.3%
Second compound 10 µM, first compound 0.00949 µM
  viability, T/C: 175%
Second compound 10 µM, first compound 0.03 µM
  viability, T/C: 159%
Second compound 10 µM, first compound 0.0949 µM
  viability, T/C: 153%
Second compound 10 µM, first compound 0.3 µM
  viability, T/C: 108%
Second compound 10 µM, first compound 0.949 µM
  viability, T/C: 125%
Second compound 10 µM, first compound 3 µM
  viability, T/C: 94.4%
